The source made the active and inactive calls. No cut-off for these calls is given here.
What was measured:
[1] = biological target: Fibroblast growth factor receptor 3 (Homo sapiens, UniProt P22607); assay: Inhibition of FGFR3 (unknown origin) kinase activity
[2] = test system: RKO; assay: Antiproliferative activity against human RKO cells assessed as inhibition of cell growth incubated for 48 hrs by EdU staining method; format: functional, cell-based
[3] = test system: HCT-116; assay: Induction of cell cycle arrest in human HCT-116 cells assessed as downregulation of cyclin B1 expression at 1.5 to 6 uM by immunoblotting analysis; format: functional, cell-based; details: dose 1.5-6 µM
[4] = test system: HCT-116; assay: Induction of cell cycle arrest in human HCT-116 cells assessed as downregulation of CDC2 expression at 1.5 to 6 uM by immunoblotting analysis; format: functional, cell-based; details: dose 1.5-6 µM
[5] = test system: SW480; assay: Induction of cell cycle arrest in human SW480 cells assessed as downregulation of cyclin B1 expression at 1.5 to 6 uM by immunoblotting analysis; format: functional, cell-based; details: dose 1.5-6 µM
[6] = test system: SW480; assay: Induction of cell cycle arrest in human SW480 cells assessed as downregulation of CDC2 expression at 1.5 to 6 uM by immunoblotting analysis; format: functional, cell-based; details: dose 1.5-6 µM
[7] = test system: HCT-116; assay: Induction of apoptosis in human HCT-116 cells assessed as downregulation of ratio of Bcl-2/Bax expression at 3 to 12 uM incubated for 48 hrs by Western blotting analysis; format: functional, cell-based; details: dose 3-12 µM
[8] = test system: HCT-116; assay: Anti-migration activity in human HCT-116 cells assessed as change in N-cad expression at 3 to 12 uM by Western blotting analysis; format: functional, cell-based; details: dose 3-12 µM
[9] = test system: HCT-116; assay: Anti-migration activity in human HCT-116 cells assessed as change in FAK expression at 3 to 12 uM by Western blotting analysis; format: functional, cell-based; details: dose 3-12 µM
[10] = Toxicity in ICR mouse assessed as change in heart weight at 20 mg/kg,po administrated for 1 week; format: organism-based; details: in vivo, 168 h, time 1 weeks
[11] = Hepatotoxicity in ICR mouse assessed as change in serum ALT level at 60 mg/kg,po administrated for 1 week; format: toxicity, organism-based; details: in vivo, 168 h, time 1 weeks
[12] = Toxicity in ICR mouse assessed as histopathological change in liver at 20 mg/kg,po administrated for 1 week by hematoxylin and eosin staining analysis; format: organism-based; details: in vivo, 168 h, time 1 weeks
[13] = test system: HCT-116; assay: Antitumor activity against human HCT-116 cells xenografted in BALB/c mouse assessed as tumor growth inhibition at 20 mg/kg,ip administrated for 2 weeks relative to control; format: functional; details: HCT-116, 336 h, read-out: TGI
[14] = Toxicity in BALB/c mouse xenografted with human HCT-116 cells assessed as change in lung weight at 20 mg/kg,ip administrated for 2 weeks; format: organism-based; details: in vivo, 336 h
[15] = Toxicity in BALB/c mouse xenografted with human HCT-116 cells assessed as change in liver weight at 20 mg/kg,ip administrated for 2 weeks; format: organism-based; details: in vivo, 336 h
[16] = Toxicity in BALB/c mouse xenografted with human HCT-116 cells assessed as change in spleen weight at 10 mg/kg,ip administrated for 2 weeks; format: organism-based; details: in vivo, 336 h
[17] = test system: HCT-116; assay: Antitumor activity against human HCT-116 cells xenografted in BALB/c mouse assessed as chromatin condensation at 10 mg/kg,ip administrated for 2 weeks by hematoxylin and eosin staining based analysis; format: functional, organism-based
[18] = Toxicity in BALB/c mouse xenografted with human HCT-116 cells assessed as histopathological change in liver at 10 mg/kg,ip administrated for 2 weeks by hematoxylin and eosin staining based analysis; format: organism-based; details: in vivo, 336 h
[19] = Toxicity in BALB/c mouse xenografted with human HCT-116 cells assessed as histopathological change in liver at 20 mg/kg,ip administrated for 2 weeks by hematoxylin and eosin staining based analysis; format: organism-based; details: in vivo, 336 h
[20] = Toxicity in BALB/c mouse xenografted with human HCT-116 cells assessed as histopathological change in kidney at 10 mg/kg,ip administrated for 2 weeks by hematoxylin and eosin staining based analysis; format: organism-based; details: in vivo, 336 h
[21] = Toxicity in BALB/c mouse xenografted with human HCT-116 cells assessed as histopathological change in kidney at 20 mg/kg,ip administrated for 2 weeks by hematoxylin and eosin staining based analysis; format: organism-based; details: in vivo, 336 h
[22] = Toxicity in BALB/c mouse xenografted with human HCT-116 cells assessed as change in serum creatinine level at 10 mg/kg,ip administrated for 2 weeks; format: organism-based; details: in vivo, 336 h
[23] = Toxicity in BALB/c mouse xenografted with human HCT-116 cells assessed as change in serum AST level at 10 mg/kg,ip administrated for 2 weeks; format: organism-based; details: in vivo, 336 h
[24] = Toxicity in BALB/c mouse xenografted with human HCT-116 cells assessed as change in serum AST level at 20 mg/kg,ip administrated for 2 weeks; format: organism-based; details: in vivo, 336 h
[25] = test system: HCT-116; assay: Antitumor activity against human HCT-116 cells xenografted in BALB/c mouse assessed as downregulation of FAK expression in tumor at 20 mg/kg,ip administrated for 2 weeks by Western blotting analysis; format: functional, organism-based

Chain of Fibroblast growth factor receptor 3 (P22607 whole entry): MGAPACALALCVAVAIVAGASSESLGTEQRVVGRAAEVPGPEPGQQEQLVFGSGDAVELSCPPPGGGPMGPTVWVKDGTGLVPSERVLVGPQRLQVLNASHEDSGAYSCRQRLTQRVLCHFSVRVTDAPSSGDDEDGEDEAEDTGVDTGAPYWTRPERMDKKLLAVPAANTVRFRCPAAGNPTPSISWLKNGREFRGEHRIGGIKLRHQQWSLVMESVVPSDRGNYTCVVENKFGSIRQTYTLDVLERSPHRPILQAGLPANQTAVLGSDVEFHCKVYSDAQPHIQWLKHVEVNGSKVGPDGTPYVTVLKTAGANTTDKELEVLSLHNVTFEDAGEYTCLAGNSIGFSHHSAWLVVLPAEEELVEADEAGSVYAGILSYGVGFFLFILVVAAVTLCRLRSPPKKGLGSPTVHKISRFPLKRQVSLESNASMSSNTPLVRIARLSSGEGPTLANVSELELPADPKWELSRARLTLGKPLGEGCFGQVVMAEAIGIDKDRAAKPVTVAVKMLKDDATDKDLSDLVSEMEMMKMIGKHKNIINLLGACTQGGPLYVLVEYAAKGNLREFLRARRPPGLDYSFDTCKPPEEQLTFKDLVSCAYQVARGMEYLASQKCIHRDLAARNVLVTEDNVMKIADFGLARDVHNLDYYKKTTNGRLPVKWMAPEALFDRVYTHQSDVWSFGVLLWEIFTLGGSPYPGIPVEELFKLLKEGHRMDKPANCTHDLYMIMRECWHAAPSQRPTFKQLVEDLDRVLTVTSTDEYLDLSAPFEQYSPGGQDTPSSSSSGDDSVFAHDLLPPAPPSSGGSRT

Q: Which IC50 [1] does the source give for `C=CC(=O)NCCCn1c(=O)c(-c2c(Cl)c(OC)cc(OC)c2Cl)cc2cnc(Nc3c(C)cccc3NC(=O)C=C)cc21` here?
A: 225 nM

Q: And the Activity [2]?
A: Dose-Dependent Effect

Q: And the Activity [3]?
A: Active

Q: What about the Activity [4] of the same molecule?
A: Active

Q: What about the Activity [5] of the same molecule?
A: Active

Q: And the Activity [6]?
A: Active

Q: What about the Activity [7] of the same molecule?
A: Active

Q: What about the Activity [8] of the same molecule?
A: inactive

Q: And the Activity [9]?
A: inactive

Q: What about the Activity [10] of the same molecule?
A: Non-Toxic

Q: And the Activity [11]?
A: Non-Toxic

Q: And the Activity [12]?
A: Non-Toxic

Q: What about the inhibition in vivo at 20 mg/kg [13] of the same molecule?
A: 70.5%

Q: What about the Activity [14] of the same molecule?
A: Non-Toxic

Q: What about the Activity [15] of the same molecule?
A: Non-Toxic

Q: And the Activity [16]?
A: Non-Toxic

Q: What about the Activity [17] of the same molecule?
A: Active

Q: And the Activity [18]?
A: Non-Toxic

Q: What about the Activity [19] of the same molecule?
A: Non-Toxic

Q: What about the Activity [20] of the same molecule?
A: Non-Toxic

Q: And the Activity [21]?
A: Non-Toxic

Q: And the Activity [22]?
A: Non-Toxic

Q: What about the Activity [23] of the same molecule?
A: Non-Toxic

Q: What about the Activity [24] of the same molecule?
A: Non-Toxic

Q: And the Activity [25]?
A: Active

Source: ChEMBL document CHEMBL5625222, “Design, synthesis, and biological evaluation of 1,6-naphthyridine-2-one derivatives as novel FGFR4 inhibitors for the treatment of colorectal cancer” (Eur J Med Chem, 2023)
